Reference: patent publication US11807835B2, “Detergent compositions containing a stabilized enzyme by phosphonates” (ECOLAB USA INC., priority 2016, dated 2023)

System: lipase
Assay: Lipase activity retention in detergent use solution (4000 ppm, 5 GPG water; p-nitrophenyl valerate, TRIS buffer pH 8.0)
Format: biochemical
Conditions: for Relative Lipase Enzyme Activity in a Use Solution of the All Ash Detergent Composition: Table 6F, 120º F.; for Relative Lipase Enzyme Activity: base formula
Method in brief: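 Lipase stability was measured in a detergent use solution under conditions mimicking presoak or manual warewash, with stirring in a water bath. Aliquots were taken over time and flash-frozen. Thawed samples were diluted in TRIS buffer at pH 8.0 and assayed with p-nitrophenyl valerate as substrate on a plate reader. Activity is reported as % retained relative to the time=0 sample.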

Diglycolamine phosphonate [DGAP]
Relative Lipase Enzyme Activity in a Use Solution of the All Ash Detergent Composition (all ash formula, phosphonate 0.3 wt-%, time 0 min): 100.00% | Relative Lipase Enzyme Activity in a Use Solution of the All Ash Detergent Composition (all ash formula, phosphonate 0.3 wt-%, time 5 min): 87.31% | Relative Lipase Enzyme Activity in a Use Solution of the All Ash Detergent Composition (all ash formula, phosphonate 0.3 wt-%, time 10 min): 76.38% | Relative Lipase Enzyme Activity in a Use Solution of the All Ash Detergent Composition (all ash formula, phosphonate 0.3 wt-%, time 20 min): 57.74% | Relative Lipase Enzyme Activity in a Use Solution of the All Ash Detergent Composition (all ash formula, phosphonate 0.3 wt-%, time 40 min): 40.00% | Relative Lipase Enzyme Activity in a Use Solution of the All Ash Detergent Composition (all ash formula, phosphonate 0.3 wt-%, time 60 min): 33.56% | Relative Lipase Enzyme Activity in a Use Solution of the All Ash Detergent Composition (all ash formula, phosphonate 0.3 wt-%, time 90 min): 25.59% | Relative Lipase Enzyme Activity in a Use Solution of the All Ash Detergent Composition (all ash formula, phosphonate 0.3 wt-%, time 120 min): 21.03% | Relative Lipase Enzyme Activity in a Use Solution of the All Ash Detergent Composition (all ash formula, phosphonate 0.3 wt-%, time 150 min): 17.27% | Relative Lipase Enzyme Activity in a Use Solution of the All Ash Detergent Composition (all ash formula, phosphonate 0.3 wt-%, time 180 min): 14.06% | Relative Lipase Enzyme Activity in a Use Solution of the All Ash Detergent Composition (all ash formula, phosphonate 0.3 wt-%, time 210 min): 12.18% | Relative Lipase Enzyme Activity in a Use Solution of the All Ash Detergent Composition (all ash formula, phosphonate 0.3 wt-%, time 240 min): 10.79% | lipase stability in all ash formula (all ash formula, versus same composition with PBTC or HEDP without amine(s), FIG. 6G): more stable | Relative Lipase Enzyme Activity (phosphonate 0.3 wt-%, use solution at 120° F., time 0 min): 100.00% | Relative Lipase Enzyme Activity (phosphonate 0.3 wt-%, use solution at 120° F., time 5 min): 83.54% | Relative Lipase Enzyme Activity (phosphonate 0.3 wt-%, use solution at 120° F., time 10 min): 88.25% | Relative Lipase Enzyme Activity (phosphonate 0.3 wt-%, use solution at 120° F., time 20 min): 77.15% | Relative Lipase Enzyme Activity (phosphonate 0.3 wt-%, use solution at 120° F., time 40 min): 62.99% | Relative Lipase Enzyme Activity (phosphonate 0.3 wt-%, use solution at 120° F., time 60 min): 52.84% | Relative Lipase Enzyme Activity (phosphonate 0.3 wt-%, use solution at 120° F., time 90 min): 43.46% | Relative Lipase Enzyme Activity (phosphonate 0.3 wt-%, use solution at 120° F., time 120 min): 35.40% | Relative Lipase Enzyme Activity (phosphonate 0.3 wt-%, use solution at 120° F., time 150 min): 31.10% | Relative Lipase Enzyme Activity (phosphonate 0.3 wt-%, use solution at 120° F., time 180 min): 22.42% | Relative Lipase Enzyme Activity (phosphonate 0.3 wt-%, use solution at 120° F., time 210 min): 24.78% | Relative Lipase Enzyme Activity (phosphonate 0.3 wt-%, use solution at 120° F., time 240 min): 22.08% | Relative Lipase Enzyme Activity (phosphonate 0.6 wt-%, use solution at 120º F., time 0 min): 100.00% | Relative Lipase Enzyme Activity (phosphonate 0.6 wt-%, use solution at 120º F., time 5 min): 95.36% | Relative Lipase Enzyme Activity (phosphonate 0.6 wt-%, use solution at 120º F., time 10 min): 100.58% | Relative Lipase Enzyme Activity (phosphonate 0.6 wt-%, use solution at 120º F., time 20 min): 94.94% | Relative Lipase Enzyme Activity (phosphonate 0.6 wt-%, use solution at 120º F., time 40 min): 93.85% | Relative Lipase Enzyme Activity (phosphonate 0.6 wt-%, use solution at 120º F., time 60 min): 86.18% | Relative Lipase Enzyme Activity (phosphonate 0.6 wt-%, use solution at 120º F., time 90 min): 76.99% | Relative Lipase Enzyme Activity (phosphonate 0.6 wt-%, use solution at 120º F., time 120 min): 71.87% | Relative Lipase Enzyme Activity (phosphonate 0.6 wt-%, use solution at 120º F., time 150 min): 72.77% | Relative Lipase Enzyme Activity (phosphonate 0.6 wt-%, use solution at 120º F., time 180 min): 64.17% | Relative Lipase Enzyme Activity (phosphonate 0.6 wt-%, use solution at 120º F., time 210 min): 63.68% | Relative Lipase Enzyme Activity (phosphonate 0.6 wt-%, use solution at 120º F., time 240 min): 56.85% | Relative Lipase Enzyme Activity (phosphonate at 0.1% elemental phosphorus, at 120º F. or at room temperature (as titled), time 0 min): 100.00% | Relative Lipase Enzyme Activity (phosphonate at 0.1% elemental phosphorus, at 120º F. or at room temperature (as titled), time 5 min): 88.13% | Relative Lipase Enzyme Activity (phosphonate at 0.1% elemental phosphorus, at 120º F. or at room temperature (as titled), time 10 min): 80.42% | Relative Lipase Enzyme Activity (phosphonate at 0.1% elemental phosphorus, at 120º F. or at room temperature (as titled), time 20 min): 74.76% | Relative Lipase Enzyme Activity (phosphonate at 0.1% elemental phosphorus, at 120º F. or at room temperature (as titled), time 40 min): 49.43% | Relative Lipase Enzyme Activity (phosphonate at 0.1% elemental phosphorus, at 120º F. or at room temperature (as titled), time 60 min): 46.05% | Relative Lipase Enzyme Activity (phosphonate at 0.1% elemental phosphorus, at 120º F. or at room temperature (as titled), time 90 min): 39.53% | Relative Lipase Enzyme Activity (phosphonate at 0.1% elemental phosphorus, at 120º F. or at room temperature (as titled), time 120 min): 34.69% | Relative Lipase Enzyme Activity (phosphonate at 0.1% elemental phosphorus, at 120º F. or at room temperature (as titled), time 150 min): 28.57% | Relative Lipase Enzyme Activity (phosphonate at 0.1% elemental phosphorus, at 120º F. or at room temperature (as titled), time 180 min): 25.49% | Relative Lipase Enzyme Activity (phosphonate at 0.1% elemental phosphorus, at 120º F. or at room temperature (as titled), time 210 min): 24.18% | Relative Lipase Enzyme Activity (phosphonate at 0.1% elemental phosphorus, at 120º F. or at room temperature (as titled), time 240 min): 22.78%
